Data from US11220671B2, “Methods for the maturation of cardiomyocytes on amniotic fluid cell-derived ECM, cellular constructs, and uses for cardiotoxicity and proarrhythmic screening of drug compounds” (STEMBIOSYS, INC., priority 2019, dated 2022).
Where two headings read alike, the source gives them in different places.

Tests used:
[1] = test system: mature cardiomyocytes (hiPSC-CMs) on AFC-ECM
Method: The cardiotoxicity and/or proarrhythmia testing can be conducted using any type of equipment suitable for measuring such activity. In some embodiments, the cellular constructs of monolayers of mature cardiomyocytes on AFC-ECM are prepared as described supra. After the maturation process (generally 7 days or less), the electrophysiology of each well is observed using a plate reader. A suitable voltage sensitive or calcium sensitive fluorescent dye is loaded into each well. Non-limiting voltage sensitive dyes include FluoVolt™ dye commercially available from ThermoFisher. In some embodiments, the plate reader can rely on a suitable high spatiotemporal CCD camera combined with suitable lighting, such as light emitting diodes (LEDs), of the appropriate wavelength to excite each dye. Such high spatiotemporal CCD cameras are commercially available from SciMeasure. In some embodiments, the camera image acquisition rate is greater than or equal to 150 frames per second. In some embodiments, the camera and lens combination are designed such that it allows visualization of all the wells of the multi-well plate simultaneously with sufficient resolution to observe action potential and calcium wave propagation. Each plate is centered under the camera system, lighting is switched on and camera acquisition is initiated and electrophysiological activity is recorded. Experiments are performed at about 37° C. After baseline readings are made, the drug to be tested is added to the wells and the effects are recorded. Spontaneous activity is recorded for a sufficient period of time to obtain images, e.g. at least 10 seconds. The images can be stored on a computer. Images are analyzed and action potential duration, conduction velocity, beat rate and activation patterns can be quantified using image analysis software. Visualization of electrical wave patterns is important to determine a drug compound's effect to cause potentially fatal arrhythmias, e.g., Torsades de Pointes (TdP). Thus, in addition to providing information on a compound's effect on spontaneous action potential duration, the methods disclosed herein can also provide information on impulse conduction velocity and activation pattern depending on the type of equipment used.
After the 7-day maturation process the electrophysiology of each well was observed using a plate reader using the following high throughput screen method. FluoVolt™ dye in Hanks Balanced Salt Solution was loaded into each well. A high spatiotemporal CCD camera (SciMeasure DaVinci camera) combined with light emitting diodes (LEDs) as shown in the schematic in FIG. 22. The camera and lens combination were designed such that it allowed visualization of all the wells of the 96-well plate simultaneously with sufficient resolution to observe action potential and calcium wave propagation. Each plate was centered under the camera system, lighting was switched on and camera acquisition was initiated and electrophysiological activity was recorded. Experiments were performed at about 37° C. Spontaneous activity was recorded for at least 10 seconds and images were stored on a computer. […] Images were analyzed and action potential duration, conduction velocity, beat rate and activation patterns were quantified using image analysis software.
The drugs were selected from the CiPA Initiative's list of compounds for validation and testing of CiPA and are classified as high risk, intermediate risk or low risk for causing fatal arrhythmias (TdPs) in patients.

[2] = CiPA list: high, intermediate or low risk for causing fatal arrhythmias (TdPs) in patients; cited from earlier work
[3] = mature cardiomyocytes on AFC-ECM, 96-well plates, plate reader, any arrhythmia detected over Dose 1-4
[4] = mature cardiomyocytes on AFC-ECM, 96-well plates, at 10 times the effective therapeutic plasma concentration

Compound: COc1ccc(CCN2CCC(Nc3nc4ccccc4n3Cc3ccc(F)cc3)CC2)cc1 [Astemizole]
- APD90 Prolongation? @10X ETPC [1]: Yes
- Arrhythmia Detected? [1]: Yes

Compound: CN1CCN(CCCCN2C(=O)CN(/N=C/c3ccc(-c4ccc(Cl)cc4)o3)C2=O)CC1 [Azimilide]
- APD90 Prolongation? @10X ETPC [1]: Yes
- Arrhythmia Detected? [1]: Yes, EAD
- Risk Category [2]: High

Compound: CC(C)COCC(CN(Cc1ccccc1)c1ccccc1)N1CCCC1 (stereo not drawn) [Bepridil]
- APD90 Prolongation? @10X ETPC [1]: Yes
- Arrhythmia Detected? [1]: Yes, Q
- Risk Category [2]: High

Compound: COc1cc(N)c(Cl)cc1C(=O)NC1CCN(CCCOc2ccc(F)cc2)CC1OC (stereo not drawn) [Cisapride]
- APD90 Prolongation? @10X ETPC [1]: No
- Arrhythmia Detected? [1]: Yes
- Risk Category [2]: Intermediate

Compound: CN1CCN(C2=Nc3cc(Cl)ccc3Nc3ccccc32)CC1 [Clozapine]
- APD90 Prolongation? @10X ETPC [1]: Yes
- Arrhythmia Detected? [1]: No

Compound: CC(C)NCC(O)c1ccc(NS(C)(=O)=O)cc1 (stereo not drawn) [D, I Sotalol]
- Arrhythmia Detected? [1, 3]: Yes, EAD
- APD90 Prolongation? @10X ETPC [1, 4]: Yes
- Risk Category [2]: High

Compound: COc1ccc([C@@H]2Sc3ccccc3N(CCN(C)C)C(=O)[C@@H]2OC(C)=O)cc1 [Diltiazem]
- APD90 Prolongation? @10X ETPC [1]: No, shortening
- Arrhythmia Detected? [1]: No

Compound: CC(C)N(CCC(C(N)=O)(c1ccccc1)c1ccccn1)C(C)C (stereo not drawn) [Disopyramide]
- APD90 Prolongation? @10X ETPC [1]: Yes
- Arrhythmia Detected? [1]: Yes, EAD, TA

Compound: CN(CCOc1ccc(NS(C)(=O)=O)cc1)CCc1ccc(NS(C)(=O)=O)cc1 [Dofetilide]
- APD90 Prolongation? @10X ETPC [1]: Yes
- Arrhythmia Detected? [1]: Yes, EAD

Compound: O=c1[nH]c2ccccc2n1CCCN1CCC(n2c(=O)[nH]c3cc(Cl)ccc32)CC1 [Domperidone]
- APD90 Prolongation? @10X ETPC [1]: Yes
- Arrhythmia Detected? [1]: Yes, TA

Compound: O=C(CCCN1CC=C(n2c(=O)[nH]c3ccccc32)CC1)c1ccc(F)cc1 [Droperidol]
- APD90 Prolongation? @10X ETPC [1]: Yes
- Arrhythmia Detected? [1]: Yes, EAD

Compound: CCCCCCCN(CC)CCCC(O)c1ccc(NS(C)(=O)=O)cc1 (stereo not drawn) [Ibutilide]
- APD90 Prolongation? @10X ETPC [1]: YeS
- Arrhythmia Detected? [1]: Yes, EAD
- Risk Category [2]: High

Compound: CCOC(=O)N1CCC(=C2c3ccc(Cl)cc3CCc3cccnc32)CC1 [Loratadine]
- Arrhythmia Detected? [1, 3]: No
- APD90 Prolongation? @10X ETPC [1, 4]: No

Compound: COCCc1ccc(OCC(O)CNC(C)C)cc1 (stereo not drawn) [Metoprolol]
- APD90 Prolongation? @10X ETPC [1]: No
- Arrhythmia Detected? [1]: Yes,

Compound: Cc1cccc(C)c1OCC(C)N (stereo not drawn) [Mexiletine]
- APD90 Prolongation? @10X ETPC [1]: No
- Arrhythmia Detected? [1]: No

Compound: CCOC(=O)C1=C(C)NC(C)=C(C(=O)OC)C1c1cccc([N+](=O)[O-])c1 (stereo not drawn) [Nitrendipine]
- APD90 Prolongation? @10X ETPC [1]: No,
- Arrhythmia Detected? [1]: No

Compound: Cc1nccn1CC1CCc2c(c3ccccc3n2C)C1=O (stereo not drawn) [Ondansetron]
- APD90 Prolongation? @10X ETPC [1]: Yes
- Arrhythmia Detected? [1]: Yes, EAD
- Risk Category [2]: Intermediate

Compound: O=c1[nH]c2ccccc2n1C1CCN(CCCC(c2ccc(F)cc2)c2ccc(F)cc2)CC1 [Pimozide]
- APD90 Prolongation? @10X ETPC [1]: No
- Arrhythmia Detected? [1]: Yes

Compound: C=C[C@H]1C[N@@]2CC[C@H]1C[C@@H]2[C@@H](O)c1ccnc2ccc(OC)cc12 [Quinidine]
- APD90 Prolongation? @10X ETPC [1]: Yes
- Arrhythmia Detected? [1, 3]: Yes, EAD

Compound: COc1ccccc1OCC(O)CN1CCN(CC(=O)Nc2c(C)cccc2C)CC1 (stereo not drawn) [Ranolazine]
- APD90 Prolongation? @10X ETPC [1]: No
- Arrhythmia Detected? [1]: No
- Risk Category [2]: Low

Compound: Cc1nc2n(c(=O)c1CCN1CCC(c3noc4cc(F)ccc34)CC1)CCCC2 [Risperidone]
- Arrhythmia Detected? [1]: No

Compound: CC/C(=C(\c1ccccc1)c1ccc(OCCN(C)C)cc1)c1ccccc1 [Tamoxifen]
- APD90 Prolongation? @10X ETPC [1]: No
- Arrhythmia Detected? [1]: No

Compound: CC(C)(C)c1ccc(C(O)CCCN2CCC(C(O)(c3ccccc3)c3ccccc3)CC2)cc1 (stereo not drawn) [Terfenadine]
- APD90 Prolongation? @10X ETPC [1]: Yes
- Arrhythmia Detected? [1]: No

Compound: COc1cc2c(Nc3ccc(Br)cc3F)ncnc2cc1OCC1CCN(C)CC1 [Vandetanib]
- APD90 Prolongation? @10X ETPC [1]: Yes
- Arrhythmia Detected? [1]: Yes, EAD
- Risk Category [2]: High

Compound: COc1ccc(CCN(C)CCCC(C#N)(c2ccc(OC)c(OC)c2)C(C)C)cc1OC (stereo not drawn) [Verapamil]
- APD90 Prolongation? @10X ETPC [1]: No, Shortening
- Arrhythmia Detected? [1]: No
